Molecules are shown by their SMILES.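 All cell lines were grown in 96-well plates and treated with compound for 48 hours. At the GI50, growth is halved. TGI is the concentration that stops growth completely.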

Among the test systems are CCRF-CEM leukemia; COLO 205 colon; EKVX NSCLC; HOP-62 NSCLC; K-562 leukemia; M14 melanoma; NCI-H226 lung; NCI-H460 lung; OVCAR-4 ovarian; CAKI-1 renal.
What all share (experiment): growth of human tumour cells (NCI), 48 h

Take `COC(=O)[C@]1(C)CCC[C@@]2(C)C1CCC1=C[C@@]3(C(C)C)CC[C@]12OO3` (some centres undefined): the TGI in the test on CCRF-CEM leukemia is 45.1 µM; in the test on COLO 205 colon, 45 µM; in the test with EKVX NSCLC, above 100 µM; in the test on HOP-62 NSCLC it was above 100 µM; in the test on K-562 leukemia it was above 100 µM; with M14 melanoma, 68.3 µM. The TGI in the test with NCI-H226 lung is 51.2 µM; with NCI-H460 lung, 56.5 µM; with OVCAR-4 ovarian, above 100 µM.

In the case of `C/C1=C\CC[C@@](C)(O)[C@@H]2CC3[C@@H](OC(=O)C34CC4)[C@@H](O2)[C@H](C)CCC1` (some centres undefined), the GI50 in the test with CAKI-1 renal is 18 µM; in the test on CCRF-CEM leukemia, 3.95 µM; in the test with COLO 205 colon, 24.2 µM; in the test with K-562 leukemia, 35.1 µM; in the test with NCI-H460 lung, 12 µM; with OVCAR-4 ovarian, 38 µM. In addition, the TGI in the test with CAKI-1 renal is 34.4 µM; in the test with CCRF-CEM leukemia, above 100 µM; in the test on COLO 205 colon, 63.6 µM; in the test on K-562 leukemia it was above 100 µM; in the test on NCI-H460 lung it was 24.7 µM; with OVCAR-4 ovarian, above 100 µM.

As to `CC1CC2(CC[C@@H]1O)OCCO2` (some centres undefined), the TGI with CAKI-1 renal, in the test with CCRF-CEM leukemia, with COLO 205 colon, with EKVX NSCLC, in the test with HOP-62 NSCLC and in the test with K-562 leukemia was above 100 µM throughout. Further, the TGI with M14 melanoma, in the test with NCI-H460 lung and with OVCAR-4 ovarian was above 100 µM throughout.

Turning to `CC(C)=CC(=O)CC(=O)C(=O)Nc1ccc(Cl)c(Cl)c1`, the TGI in the test on CCRF-CEM leukemia, in the test with COLO 205 colon, with EKVX NSCLC, in the test with HOP-62 NSCLC, in the test on K-562 leukemia and with M14 melanoma was above 100 µM throughout. Moreover, the TGI in the test with NCI-H226 lung, in the test on NCI-H460 lung and with OVCAR-4 ovarian was above 100 µM throughout.

Regarding `CC(CCCOC(c1ccccc1)(c1ccccc1)c1ccccc1)OC(=O)Nc1cc([N+](=O)[O-])cc([N+](=O)[O-])c1` (centres undefined), the TGI with CAKI-1 renal is 72.1 µM; in the test on CCRF-CEM leukemia it was above 100 µM; in the test with EKVX NSCLC it was 97 µM; in the test on HOP-62 NSCLC it was 83.4 µM; with K-562 leukemia, above 100 µM; in the test with M14 melanoma, above 100 µM. Also, the TGI in the test with NCI-H460 lung was 73.2 µM; in the test on OVCAR-4 ovarian, above 100 µM.

As to `Cc1cc(N2CCCC2)nc(N(CCCNc2ccnc3cc(Cl)ccc23)Cc2ccc3c(c2)OCO3)n1`, the GI50 in the test on CCRF-CEM leukemia is 0.398 µM; in the test with COLO 205 colon, 1.39 µM; with EKVX NSCLC, 3.16 µM; in the test on HOP-62 NSCLC, 1.83 µM; with K-562 leukemia it was 0.218 µM; with M14 melanoma, 1.37 µM. Besides, the GI50 is 5.2 µM in the test on NCI-H226 lung, 1.29 µM in the test with NCI-H460 lung and 1.86 µM in the test with OVCAR-4 ovarian. The TGI in the test with CCRF-CEM leukemia was 4.03 µM; in the test with COLO 205 colon, 3 µM; with EKVX NSCLC, above 100 µM; in the test on HOP-62 NSCLC, 10.2 µM; in the test with K-562 leukemia it was 1.86 µM; with M14 melanoma it was 3.04 µM. The TGI in the test with NCI-H226 lung is 33.8 µM; in the test with NCI-H460 lung, 4.34 µM; in the test on OVCAR-4 ovarian, 8.22 µM.

For the compound `N#Cc1ccccc1NC(=O)c1ccccc1`, the TGI in the test with CAKI-1 renal, in the test with COLO 205 colon, with EKVX NSCLC, with HOP-62 NSCLC, in the test on K-562 leukemia and in the test on NCI-H460 lung was above 100 µM each time. For the same compound, in the test with OVCAR-4 ovarian, the TGI is above 100 µM.

Regarding `CC(=O)NC(CCCN(Cc1ccccc1)C(=O)N(CCCl)N=O)C(=O)NCc1ccccc1` (centres undefined), the TGI was above 100 µM in the test with CCRF-CEM leukemia; above 100 µM with COLO 205 colon; above 100 µM with EKVX NSCLC; 46.3 µM in the test on HOP-62 NSCLC; above 100 µM with K-562 leukemia; above 100 µM in the test with M14 melanoma. For the same compound, the TGI with NCI-H226 lung is above 94.2 µM; in the test with NCI-H460 lung, above 79.6 µM; in the test on OVCAR-4 ovarian, above 100 µM.

In the case of `CS(=O)(=O)Nc1cc(-c2ccc3ncnc(Nc4ccc5c(cnn5Cc5ccc(F)cc5)c4)c3c2)cnc1Cl`, the GI50 is 0.822 µM in the test on CCRF-CEM leukemia; 1.96 µM with COLO 205 colon; 2.21 µM in the test with EKVX NSCLC; 1.53 µM in the test with HOP-62 NSCLC; 1.4 µM with K-562 leukemia; 2.33 µM in the test with M14 melanoma. The GI50 is 2.18 µM in the test with NCI-H226 lung, 2.8 µM in the test on NCI-H460 lung and 3.09 µM in the test on OVCAR-4 ovarian. The TGI is above 100 µM in the test on CCRF-CEM leukemia; 6.02 µM in the test on COLO 205 colon; 18.4 µM in the test with EKVX NSCLC; 41.4 µM in the test with HOP-62 NSCLC; 12.7 µM in the test with K-562 leukemia; 17 µM in the test with M14 melanoma. The TGI in the test on NCI-H226 lung was 11 µM; in the test with NCI-H460 lung, 13.3 µM; in the test on OVCAR-4 ovarian, 44 µM.

Regarding `CCOc1ccc(NC(=O)CC2SC(N)=NC2=O)cc1` (centres undefined), the TGI with CCRF-CEM leukemia, with COLO 205 colon, in the test on EKVX NSCLC, with HOP-62 NSCLC, with M14 melanoma and in the test with NCI-H226 lung was above 100 µM throughout. For the same compound, the TGI in the test on NCI-H460 lung and in the test with OVCAR-4 ovarian was above 100 µM throughout.

Consider `CN(C)c1ccc(C(N)=O)cn1`, for which the TGI in the test on CCRF-CEM leukemia, with COLO 205 colon, in the test with EKVX NSCLC, in the test with HOP-62 NSCLC, in the test on K-562 leukemia and with NCI-H460 lung was above 100 µM each time.

As for `CCCCCCCCCCCCC(=O)[O-].CCCCCCCCCCCCC(=O)[O-].CCCCCCCCCCCCC(=O)[O-].CCCCCCCCCCCCC(=O)[O-].[Mo+2].[Mo+2]`, the GI50 in the test on CCRF-CEM leukemia was 2.29 µM; in the test with COLO 205 colon, 19.3 µM; in the test with EKVX NSCLC it was 19.7 µM; in the test on K-562 leukemia it was 10.9 µM; with M14 melanoma, 11.7 µM; with NCI-H226 lung, 12.4 µM. The GI50 in the test with NCI-H460 lung is 17.1 µM; in the test with OVCAR-4 ovarian it was 10.2 µM. Further, the TGI in the test on CCRF-CEM leukemia worked out at 10 µM; with COLO 205 colon, 46.4 µM; with EKVX NSCLC it was 35.8 µM; in the test with K-562 leukemia it was 79.8 µM; with M14 melanoma, 27.8 µM; with NCI-H226 lung, 46.8 µM. Also, the values for the TGI with NCI-H460 lung and in the test on OVCAR-4 ovarian were 60.1 µM and 24.2 µM, respectively.

For the origin of these results see PubChem BioAssay (NCI).
